Measurements: patent publication US20260027239A1, “cRGD -CONJUGATED IMAGING AGENT” (Curadel Surgical Innovations, Inc., priority 2022, published 2026)

Assays:
[1] = Stability in warm buffered fetal bovine serum (normalized absorbance and absorbance spectra over time); assay type: in vitro ADME; conditions: 37° C. buffered FBS
Method: The normalized absorbance of ZW800-1 and ZW700-1c in 37° C. buffered FBS, pH 7.4 over time from 0 to 60 hours are shown in FIGS. 2-4.

[2] = Stability of cRGD in serum; assay type: in vitro ADME

Structure (SMILES)	stability, changes in absorption spectra during metabolism in warm serum ([1]; pH 7.4, 0 to 48 hours, compared to ZW800-1 (FIGS. 5-6))	stability, normalized absorbance over time ([1]; pH 7.4, 0 to 60 hours, compared to ZW800-1 (FIGS. 2-4))	stability in serum [2]
CC1(C)C(/C=C/C(=C/C=C2/N(CCC[N+](C)(C)C)c3ccc(S(=O)(=O)[O-])cc3C2(C)C)c2ccc(CCC(=O)[O-])cc2)=[N+](CCC[N+](C)(C)C)c2ccc(S(=O)(=O)[O-])cc21 [ZW700-1c]	high stability	extreme stability	–
N=C(N)NCC[C@@H]1NC(=O)[C@H](CCCCN)NC(=O)[C@@H](Cc2ccc(O)cc2)NC(=O)[C@H](C(=O)O)NC(=O)CNC1=O [cRGD]	–	–	stable in serum for days
